# Data: ChEMBL document CHEMBL1201862, “PubChem BioAssay data set” (2004)
# Calls of active or inactive are those of the source.
# Key:
# [1] = activation of miR-122 Renilla sensor silencing – cell-based, Huh7 psiCHECK-miR122, Renilla luciferase, cherry-picked, dose response (AID 651956); format: functional;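 note: huh7 hepatoma cells stably carrying a psiCHECK-2 miR-122 sensor plasmid; renilla luciferase signal reporting endogenous miR-122 activity after 48 h compound exposure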
# [2] = general mammalian cell viability loss – inhibitor set, cherry-pick, set 2, cytotoxicity control for miR-122 modulator project, dose response (AID 720697); format: functional, cell-based
# [3] = general mammalian cell viability loss – activator set, cherry-pick, cytotoxicity control for miR-122 modulator project, dose response (AID 720690); format: functional, cell-based;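 note: HEK293T human cells scored for general mammalian cytotoxicity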
# [4] = target: Disintegrin and metalloproteinase domain-containing protein 17 (Homo sapiens, UniProt P78536); test: exosite inhibitors of ADAM17, dose response, biochemical (AID 743260)
# Chain of Disintegrin and metalloproteinase domain-containing protein 17 (P78536 whole entry, the tested form may be a part): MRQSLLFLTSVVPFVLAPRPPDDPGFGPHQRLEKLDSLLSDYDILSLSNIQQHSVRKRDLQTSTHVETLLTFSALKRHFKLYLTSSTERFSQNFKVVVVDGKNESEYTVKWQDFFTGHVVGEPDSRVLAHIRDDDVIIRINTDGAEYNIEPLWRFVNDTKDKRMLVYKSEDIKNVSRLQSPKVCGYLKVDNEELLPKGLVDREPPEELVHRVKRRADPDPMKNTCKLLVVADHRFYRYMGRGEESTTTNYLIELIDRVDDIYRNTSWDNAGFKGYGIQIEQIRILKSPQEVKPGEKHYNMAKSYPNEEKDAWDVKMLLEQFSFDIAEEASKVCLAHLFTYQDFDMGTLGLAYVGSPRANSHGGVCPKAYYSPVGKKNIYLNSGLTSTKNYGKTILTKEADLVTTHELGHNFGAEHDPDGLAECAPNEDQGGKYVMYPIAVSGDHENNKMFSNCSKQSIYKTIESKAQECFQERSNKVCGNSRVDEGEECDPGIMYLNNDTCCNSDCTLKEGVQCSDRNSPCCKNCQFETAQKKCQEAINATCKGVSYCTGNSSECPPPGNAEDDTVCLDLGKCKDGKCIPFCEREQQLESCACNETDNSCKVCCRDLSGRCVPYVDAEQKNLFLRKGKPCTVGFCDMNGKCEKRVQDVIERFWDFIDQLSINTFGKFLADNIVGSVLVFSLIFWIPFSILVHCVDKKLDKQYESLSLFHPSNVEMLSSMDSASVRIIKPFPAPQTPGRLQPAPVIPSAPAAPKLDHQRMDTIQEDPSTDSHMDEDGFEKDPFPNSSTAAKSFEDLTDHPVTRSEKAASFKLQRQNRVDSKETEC
# [5] = inhibition of ADAM10 peptide cleavage – biochemical, FRET peptide substrate, recombinant human ADAM10, selectivity assay for ADAM17 exosite inhibitor project, dose response (AID 743259);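 note: ADAM10 enzyme cleaving a FRET peptide substrate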
# [6] = target: Metabotropic glutamate receptor 3 (Rattus norvegicus, UniProt P31422); test: inhibition of rat mGlu3 glutamate signaling – HEK/GIRK cells, thallium flux, dose response (AID 651839); format: functional
# Chain of Metabotropic glutamate receptor 3 (P31422 whole entry): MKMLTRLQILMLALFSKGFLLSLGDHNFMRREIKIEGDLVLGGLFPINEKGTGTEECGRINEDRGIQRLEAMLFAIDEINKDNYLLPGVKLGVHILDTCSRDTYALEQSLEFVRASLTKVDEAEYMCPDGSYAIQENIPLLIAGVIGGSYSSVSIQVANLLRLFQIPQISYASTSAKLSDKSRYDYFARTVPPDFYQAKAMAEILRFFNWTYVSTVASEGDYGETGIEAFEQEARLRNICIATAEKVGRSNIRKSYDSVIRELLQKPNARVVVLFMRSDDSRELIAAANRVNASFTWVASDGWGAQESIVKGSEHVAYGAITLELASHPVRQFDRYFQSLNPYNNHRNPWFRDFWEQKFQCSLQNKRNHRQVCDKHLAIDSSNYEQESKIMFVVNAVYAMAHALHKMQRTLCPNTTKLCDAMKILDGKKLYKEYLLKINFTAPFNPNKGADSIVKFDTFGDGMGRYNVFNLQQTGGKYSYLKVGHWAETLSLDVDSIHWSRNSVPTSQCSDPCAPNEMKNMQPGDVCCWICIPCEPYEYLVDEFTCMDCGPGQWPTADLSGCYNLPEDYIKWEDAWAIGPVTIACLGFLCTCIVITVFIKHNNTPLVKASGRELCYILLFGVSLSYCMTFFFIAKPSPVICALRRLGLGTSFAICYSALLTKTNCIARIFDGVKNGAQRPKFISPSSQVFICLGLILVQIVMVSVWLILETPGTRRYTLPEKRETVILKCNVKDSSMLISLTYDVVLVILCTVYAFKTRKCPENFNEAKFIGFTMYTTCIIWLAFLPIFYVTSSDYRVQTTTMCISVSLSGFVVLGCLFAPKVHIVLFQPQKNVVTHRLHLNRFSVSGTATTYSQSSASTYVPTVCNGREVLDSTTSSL
# [7] = NIH-3T3 fibroblast cytotoxicity, dose response, cytotoxicity control, cell-based, fluorescence, Alamar Blue, secondary assay (AID 2327); format: functional;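 note: NIH-3T3 mouse fibroblasts cultured with fluconazole at 8 µg/mL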
# [8] = test system: Streptococcus sp. 'group A'; test: Streptococcus pyogenes SK(-)GAS viability under kanamycin – luminescence, BacTiterGlo, confirmation, counter-screen for streptokinase expression inhibitor project, dose response (AID 1900); format: functional, organism-based
# [9] = test system: BJ; test: BJ-TERT fibroblast viability loss – cell-based, RAS-independent, luminescence, dose response (AID 1933); format: functional; settings: Homo sapiens
# [10] = target: T1, Streptokinase A (Streptococcus pyogenes serotype M1, UniProt P10520); test: viability-normalized secreted streptokinase activity reduction – plasminogen activation absorbance, OD405, dose response (AID 1914); format: functional, Streptococcus pyogenes M1 GAS;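 note: secreted streptokinase activity via plasminogen activation per viability signal from cell pellet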
# T1 sequence (P10520 whole entry): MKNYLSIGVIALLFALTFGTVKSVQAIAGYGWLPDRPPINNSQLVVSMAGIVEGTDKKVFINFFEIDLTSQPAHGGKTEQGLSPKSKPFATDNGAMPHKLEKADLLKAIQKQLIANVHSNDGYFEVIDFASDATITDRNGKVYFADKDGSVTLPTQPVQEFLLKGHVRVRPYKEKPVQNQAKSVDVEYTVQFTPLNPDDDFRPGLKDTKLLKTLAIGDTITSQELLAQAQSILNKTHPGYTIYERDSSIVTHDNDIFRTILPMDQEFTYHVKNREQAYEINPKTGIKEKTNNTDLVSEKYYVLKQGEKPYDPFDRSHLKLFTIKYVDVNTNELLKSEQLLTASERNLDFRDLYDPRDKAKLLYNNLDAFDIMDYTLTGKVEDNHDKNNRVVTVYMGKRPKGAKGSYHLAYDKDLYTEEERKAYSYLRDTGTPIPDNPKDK
# [11] = test system: BJ; test: cells; format: functional, cell-based; settings: Homo sapiens
# [12] = fluconazole-exposed Candida albicans growth modulators – fluorescence, retest, confirmation (AID 2467); format: functional, cell-based
# [13] = microbe, parasite or virus in culture; format: functional; settings: Mycobacterium tuberculosis
# [14] = test system: BJ; test: BJ-TERT-LT-ST fibroblast viability loss – cell-based, RAS-independent, luminescence, dose response (AID 1935); format: functional; settings: Homo sapiens;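 note: BJ fibroblasts immortalized with TERT plus LT and ST oncogenes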
# [15] = DRD fibroblast viability loss – cell-based, non-viral oncogenic, luminescence, dose response (AID 1934); format: functional; settings: Homo sapiens
# [16] = target: Induced myeloid leukemia cell differentiation protein Mcl-1 (Homo sapiens, UniProt Q07820); format: functional
# Chain of Induced myeloid leukemia cell differentiation protein Mcl-1 (Q07820 whole entry): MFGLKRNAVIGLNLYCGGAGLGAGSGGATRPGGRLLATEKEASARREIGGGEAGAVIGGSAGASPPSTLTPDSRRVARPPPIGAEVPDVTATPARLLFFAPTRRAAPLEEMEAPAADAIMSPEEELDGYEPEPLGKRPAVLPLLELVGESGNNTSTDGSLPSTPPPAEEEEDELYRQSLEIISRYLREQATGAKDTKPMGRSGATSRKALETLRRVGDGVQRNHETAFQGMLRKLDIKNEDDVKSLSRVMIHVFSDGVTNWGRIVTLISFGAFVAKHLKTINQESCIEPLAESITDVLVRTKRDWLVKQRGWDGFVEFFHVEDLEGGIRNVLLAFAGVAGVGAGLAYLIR
# [17] = test system: Streptococcus; test: GAS UMAA2166 growth inhibition – luminescence, BacTiterGlo, counter-screen for streptokinase expression inhibitor project, dose response (AID 1915); format: functional, organism-based;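 note: potency for reduction of bacterial viability or growth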
# [18] = THP-1 cell cytotoxicity, dose response, cytotoxicity control for non-replicating M. tuberculosis project (AID 489025); format: functional
# [19] = HepG2 cell cytotoxicity, dose response, cytotoxicity control for non-replicating M. tuberculosis project (AID 489018); format: functional; settings: Mycobacterium tuberculosis
# [20] = Vero E6 cell cytotoxicity, dose response, cytotoxicity control for non-replicating M. tuberculosis project, secondary assay (AID 492998); format: functional, VeroE6; settings: Vero C1008
# [21] = target: T2, Heat shock factor protein 1 (Mus musculus, UniProt P38532); test: enhancement of HSF1-driven luciferase signal – cell-based, NIH3T3, luminescence, dose retest, confirmation (AID 435004); format: functional;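 note: stress induced by proteasome inhibitor MG132 added 30 min after compound; luciferase reporter driven by HSF1 response element in NIH3T3 cells; actives raise luminescence as potentiators of the MG132 stress response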
# T2 sequence (P38532 whole entry): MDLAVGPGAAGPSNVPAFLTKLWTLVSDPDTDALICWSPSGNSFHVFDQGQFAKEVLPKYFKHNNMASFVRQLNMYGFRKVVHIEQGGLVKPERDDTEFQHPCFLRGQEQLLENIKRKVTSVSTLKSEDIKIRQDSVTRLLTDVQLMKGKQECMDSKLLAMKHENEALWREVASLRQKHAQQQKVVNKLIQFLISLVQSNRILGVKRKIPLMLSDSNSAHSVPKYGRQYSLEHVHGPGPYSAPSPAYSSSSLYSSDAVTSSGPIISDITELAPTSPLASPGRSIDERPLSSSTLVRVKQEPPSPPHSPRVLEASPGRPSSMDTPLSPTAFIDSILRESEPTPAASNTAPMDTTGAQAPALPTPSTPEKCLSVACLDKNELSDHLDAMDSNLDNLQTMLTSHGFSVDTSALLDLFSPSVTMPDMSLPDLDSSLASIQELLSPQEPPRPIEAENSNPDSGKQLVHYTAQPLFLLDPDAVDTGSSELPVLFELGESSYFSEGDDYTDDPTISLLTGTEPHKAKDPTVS
# [22] = cells; format: functional
# [23] = test system: INS1; test: INS-1E survival protection against cytokine death – cell-based, luminescence, retest, dose response (AID 449756); format: functional; settings: Rattus norvegicus;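 note: cell death triggered by IL-1 beta plus TNF-alpha plus IFN-gamma mixture; protective hits raise ATP signal compared with cytokine alone wells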
# [24] = target: Dual specificity tyrosine-phosphorylation-regulated kinase 1A (Rattus norvegicus, UniProt Q63470); format: biochemical, Homo sapiens
# [25] = test system: P388/ADR; test: cells; format: functional; settings: Mus musculus
# [26] = target: Melanocortin receptor 4 (Homo sapiens, UniProt P32245); format: functional, cell-based;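 note: Cell-based assay with luminescence read-out, confirmatory dose-response testing for agonist activity of biased ligands at MC4R; human U2OS cells with tagged receptor and beta-arrestin; potency of agonists that increase receptor coupling to beta-arrestin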
# Chain of Melanocortin receptor 4 (P32245 whole entry): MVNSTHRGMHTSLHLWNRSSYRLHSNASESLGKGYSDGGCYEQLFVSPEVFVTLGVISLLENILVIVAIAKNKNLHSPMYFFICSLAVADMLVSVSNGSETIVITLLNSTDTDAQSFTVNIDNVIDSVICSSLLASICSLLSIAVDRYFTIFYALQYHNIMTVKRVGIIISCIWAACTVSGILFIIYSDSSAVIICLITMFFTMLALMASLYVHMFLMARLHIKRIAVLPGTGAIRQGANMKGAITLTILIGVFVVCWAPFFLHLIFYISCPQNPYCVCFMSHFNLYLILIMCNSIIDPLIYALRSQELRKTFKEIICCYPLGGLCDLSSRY
# [27] = test system: SN12K1; test: cells; format: functional; settings: Homo sapiens
# [28] = test system: P388; test: cells; format: functional; settings: Mus musculus
# [29] = viability loss in HeLa cells – cytotoxicity control for MgcRacGAP inhibitor project, dose response (AID 624300); format: functional
# [30] = target: T3, Rac GTPase-activating protein 1 (Homo sapiens, UniProt Q9H0H5); test: blockers of MgcRacGAP-driven Rac1 GTP hydrolysis – biochemical, ADP Hunter fluorescence, primary and confirmatory, confirmation (AID 624330); format: functional
# T3 sequence (Q9H0H5 whole entry): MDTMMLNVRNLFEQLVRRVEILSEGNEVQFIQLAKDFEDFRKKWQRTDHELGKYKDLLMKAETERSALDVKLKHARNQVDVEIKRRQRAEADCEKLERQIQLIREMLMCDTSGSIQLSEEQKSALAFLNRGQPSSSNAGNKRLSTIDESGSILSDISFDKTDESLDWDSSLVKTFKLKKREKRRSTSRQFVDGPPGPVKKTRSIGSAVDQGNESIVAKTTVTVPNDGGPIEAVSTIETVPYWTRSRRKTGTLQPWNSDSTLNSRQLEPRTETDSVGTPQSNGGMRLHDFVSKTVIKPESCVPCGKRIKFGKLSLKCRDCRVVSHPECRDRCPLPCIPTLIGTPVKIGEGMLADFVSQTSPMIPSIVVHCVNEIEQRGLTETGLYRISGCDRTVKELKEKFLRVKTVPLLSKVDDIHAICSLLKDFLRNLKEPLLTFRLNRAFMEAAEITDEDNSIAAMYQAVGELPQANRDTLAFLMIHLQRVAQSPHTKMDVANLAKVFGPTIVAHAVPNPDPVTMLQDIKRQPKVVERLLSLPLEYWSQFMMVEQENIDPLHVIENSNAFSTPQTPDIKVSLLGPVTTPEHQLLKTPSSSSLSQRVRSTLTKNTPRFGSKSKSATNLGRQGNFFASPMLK
# [31] = target: SWI/SNF-related matrix-associated actin-dependent regulator of chromatin subfamily A member 2 (Homo sapiens, UniProt P51531); test: Luminescence-based cell-based high throughput dose response assay to identify activators of the function of SWI/SNF related, matrix associated, actin dependent regulator of chromatin, subfamily a, member 2 (SMARCA2, BRM).; format: functional
# Chain of SWI/SNF-related matrix-associated actin-dependent regulator of chromatin subfamily A member 2 (P51531 whole entry): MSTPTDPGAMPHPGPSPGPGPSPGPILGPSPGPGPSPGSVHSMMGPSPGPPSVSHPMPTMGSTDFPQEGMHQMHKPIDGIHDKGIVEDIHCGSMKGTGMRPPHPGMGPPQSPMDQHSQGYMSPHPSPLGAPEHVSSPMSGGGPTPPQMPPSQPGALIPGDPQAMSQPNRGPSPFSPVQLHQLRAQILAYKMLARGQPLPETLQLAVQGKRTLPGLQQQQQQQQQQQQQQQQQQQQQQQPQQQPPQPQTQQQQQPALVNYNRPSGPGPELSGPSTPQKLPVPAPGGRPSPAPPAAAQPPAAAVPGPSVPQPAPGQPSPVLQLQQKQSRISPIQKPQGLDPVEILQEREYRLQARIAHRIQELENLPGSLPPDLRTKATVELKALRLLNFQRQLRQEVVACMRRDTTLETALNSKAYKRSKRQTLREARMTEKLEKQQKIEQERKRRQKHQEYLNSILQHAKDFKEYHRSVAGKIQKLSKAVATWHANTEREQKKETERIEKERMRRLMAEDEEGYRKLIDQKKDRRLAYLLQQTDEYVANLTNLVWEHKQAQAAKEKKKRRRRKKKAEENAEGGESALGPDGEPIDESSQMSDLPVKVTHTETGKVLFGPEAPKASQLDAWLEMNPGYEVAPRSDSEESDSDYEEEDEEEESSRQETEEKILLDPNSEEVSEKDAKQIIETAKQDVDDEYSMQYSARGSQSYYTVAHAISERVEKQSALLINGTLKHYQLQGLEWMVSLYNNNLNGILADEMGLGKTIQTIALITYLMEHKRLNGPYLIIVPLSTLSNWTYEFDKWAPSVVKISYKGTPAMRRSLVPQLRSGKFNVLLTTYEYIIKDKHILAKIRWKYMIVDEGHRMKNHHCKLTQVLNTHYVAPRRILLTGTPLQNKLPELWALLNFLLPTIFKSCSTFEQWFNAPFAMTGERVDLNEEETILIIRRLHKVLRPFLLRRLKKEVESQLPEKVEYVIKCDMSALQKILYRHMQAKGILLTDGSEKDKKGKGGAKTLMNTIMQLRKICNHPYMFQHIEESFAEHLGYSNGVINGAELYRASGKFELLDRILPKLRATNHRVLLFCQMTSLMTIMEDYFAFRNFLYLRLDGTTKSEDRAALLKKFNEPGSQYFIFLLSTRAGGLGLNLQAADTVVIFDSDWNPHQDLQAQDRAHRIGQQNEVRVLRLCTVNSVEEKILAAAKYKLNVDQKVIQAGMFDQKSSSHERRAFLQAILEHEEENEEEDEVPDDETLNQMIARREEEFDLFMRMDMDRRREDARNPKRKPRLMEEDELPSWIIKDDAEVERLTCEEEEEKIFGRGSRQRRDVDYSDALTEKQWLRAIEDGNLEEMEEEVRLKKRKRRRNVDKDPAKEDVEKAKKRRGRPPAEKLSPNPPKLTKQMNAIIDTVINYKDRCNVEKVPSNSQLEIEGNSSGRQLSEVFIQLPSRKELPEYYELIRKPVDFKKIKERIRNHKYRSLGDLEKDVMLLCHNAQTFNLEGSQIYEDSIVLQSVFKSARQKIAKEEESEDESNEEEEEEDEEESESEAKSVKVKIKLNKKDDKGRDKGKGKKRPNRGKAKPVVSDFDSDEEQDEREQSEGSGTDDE
# [32] = Counterscreen for activators of the function of SWI/SNF related, matrix associated, actin dependent regulator of chromatin, subfamily a, member 2 (SMARCA2, BRM): Luminescence-based cell-based high throughput dose response assay to identify non-selective compounds using the VP16 reporter assay.; format: functional
# [33] = target: T4, DNA repair protein RAD52 homolog (Homo sapiens, UniProt P43351); format: functional, biochemical
# T4 sequence (P43351 whole entry): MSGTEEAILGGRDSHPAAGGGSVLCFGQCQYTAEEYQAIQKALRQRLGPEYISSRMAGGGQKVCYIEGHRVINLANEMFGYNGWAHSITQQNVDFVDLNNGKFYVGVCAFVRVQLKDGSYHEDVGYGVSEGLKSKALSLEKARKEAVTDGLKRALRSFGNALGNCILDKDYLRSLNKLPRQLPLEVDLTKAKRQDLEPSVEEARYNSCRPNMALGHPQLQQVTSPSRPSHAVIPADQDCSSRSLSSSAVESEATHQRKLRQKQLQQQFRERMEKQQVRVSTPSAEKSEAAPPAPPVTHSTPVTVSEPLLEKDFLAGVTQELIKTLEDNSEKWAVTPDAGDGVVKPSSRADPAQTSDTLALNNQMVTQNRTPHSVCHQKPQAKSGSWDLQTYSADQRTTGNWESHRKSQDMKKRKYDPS
# [34] = test system: HEK293; test: cells; settings: Homo sapiens
# [35] = test system: HEK293; test: cells; settings: Homo sapiens; remark: listed apart in the source
# [36] = test system: Cryptococcus neoformans; test: PubChem AID 686997; format: functional, organism-based
# [37] = test system: Cryptococcus neoformans; test: Cryptococcus growth inhibition by alamar blue – cell lysis, cherry-picks, replicate tests, mechanism study for C. neoformans antifungal project, dose response (AID 686999); format: functional, organism-based
# [38] = rescue of ΔF508 CFTR function, airway epithelium – human bronchial epithelial cells, plate reader, cherry-pick, two tests, dose response (AID 743267); format: functional, cell-based
# [39] = viability loss in THP-1 monocytes – THP-1 cells, cytotoxicity control for Vif-APOBEC3G degradation inhibitor project, dose response (AID 1117359); format: functional; settings: THP-1
smiles,measurement,setting,value
C[C@H](CO)N1C[C@H](C)[C@H](CN(C)CC2CCCCC2)Oc2ccc(NC(=O)Nc3ccc(C(F)(F)F)cc3)cc2C1=O,AC50,[1],31.5 µM (active)
same,AC50,[2],15.1 µM (active)
same,AC50,[3],17.1 µM (active)
CCOC(=O)CC(SP1(=S)OCC2(CCCCO2)C(C2CCCCO2)O1)C(=O)OCC (stereo not given),IC50,[4],32.8 µM (inactive)
same,IC50,[5],56.3 µM (inactive)
COc1ccc(C#Cc2ccc(C(=O)N3CCC[C@@H](CO)C3)cc2)c(F)c1,IC50,[6],4.92 µM
COc1ccc2[nH]c3c(C)c4ccncc4c(C)c3c2c1,EC50,[7],4.36 µM (inconclusive)
same,EC50,[8],2.52 µM (active)
same,EC50,[9],3.65 µM (inconclusive)
same,EC50,[10],> 150 µM (not active)
same,EC50,[11],9.28 µM (inconclusive)
same,EC50,[12],0.698 µM (active)
same,CC50,[13],0.838 µM (active)
same,EC50,[14],4.95 µM (inconclusive)
same,EC50,[15],2.51 µM (active)
same,IC50,[16],> 54 µM (active)
same,EC50,[17],8.86 µM (active)
same,CC50,[18],2.94 µM (active)
same,CC50,[19],8.79 µM (active)
same,CC50,[20],0.93 µM (active)
same,EC50,[21],> 260 µM (inconclusive)
same,IC50,[22],0.37 µM (active)
same,AC50,[23],1.93 µM (active)
same,AC50,[24],2.86 µM (active)
same,GI50,[25],0.439 µM (active)
same,EC50,[26],> 89.3 µM (inactive)
same,GI50,[27],0.245 µM (active)
same,GI50,[28],0.239 µM (active)
same,CC50,[29],31.2 µM (active)
same,IC50,[30],28.8 µM (active)
same,EC50,[31],> 3.38 µM (active)
same,EC50,[32],> 91.3 µM (inactive)
same,AC50,[33],< 11.1 µM (active)
same,EC50,[34],> 59.7 µM (inactive)
same,EC50,[35],> 59.7 µM (inactive)
COC(=O)C1=C(C)N(Cc2ccccc2)C(=S)NC1c1ccc(Br)cc1 (stereo not given),AC50,[36],25 µM (active)
same,AC50,[37],35 µM (active)
C=CC/N=c1\scc(C)n1/N=C/c1ccc(O)c(O)c1,IC50,[30],17.4 µM (active)
same,AC50,[38],50 µM (active)
same,CC50,[39],19.8 µM (active)
